We go through one compound from patent EP0039809A2, “2-Amino-5-halogen-benzothiazoles, process for preparing them and medicines containing them” (Dr. Karl Thomae GmbH, priority 1980, dated 1981).

Like-named read-outs stand apart in the source and are kept apart here.

The test system of data set [1] is Entzündungsschmerz der Ratte. Nature of the data set: Analgesic effect against inflammatory pain in the rat (RANDALL-SELITTO, yeast-inflamed paw, pain threshold). Format: in vivo. The settings on record: oral (gavage), male Chbb:THOM rats, dose raising the pain threshold by 50 % versus controls. Here is the method: 1) Wirkung gegen den Entzündungsschmerz der Ratte
Die Versuchsanordnung entsprach der von RANDALL-SELITTO (Arch. int. Pharmacodyn. 111, 409 (1957) angegebenen.
Männliche Chbb:THOM-Ratten mit einem Gewicht zwischen 100 und 130 g erhielten eine subplantare Injektion von 0,1 ml einer 5%igen Suspension von Hefezellen in 5,55 %iger Glukoselösun^g in eine Hinterpfote. […] 2 1/4 Stunden nach der Injektion des Phlogisticums erhielten die Tiere verschiedene Dosen der Prüfsubstanz als Verreibung in 1 %iger Methylzellulose (1 ml/100 g Tier) per Schlundsonde beigebracht. Kontrolltiere erhielten entsprechende Volumina des Vehikels. ― 90 bzw. 45 min nach Applikation der Prüfsubstanz (d.h. 3 Stunden nach der subplantaren Injektion der Hefesuspension) wurde bei den Ratten die Schmerzschwelle in g Auflagedruck/Pfote bestimmt.
Aus der nach den verschiedenen Dosen der Prüfsubstanz ge- i messenen Schmerzschwelle wurde nach linearer Regressionsanalyse nach LINDER (Statistische Methoden, 4. Aufl. pp. 148-162, Birkhäuser, Basel 1964) eine ED50 mit den Vertrauensgrenzen nach FIELLER (Quart. J. Pharm. Pharmacol. 17, 117 (1944) als jene Dosis ermittelt, die eine Anhebung der Schmerzschwelle um 50 % gegenüber der der Kontrollen bewirkte.

Data set [2] concerns Körpertemperatur der Ratte. The data set is described as follows: Effect on body temperature of the rat (rectal temperature lowering). The format is in vivo. The note with it: oral (gavage), Chbb:THOM rats, dose lowering body temperature by 1,5°C, read-out: Körpertemperatursenkg. Ratte [ED-1,5°C]. As for the experimental part: 3. Wirkung auf die Körpertemperatur der Ratte
Die Prüfung der temperatursenkenden Wirkung erfolgte durch; die Kontrolle des Verlaufes der rektal gemessenen Körper- temperatur von Chbb:THOM-Ratten mit einem Gewicht zwischen 125-150 g über im Rektum verweilende Thermoelemente. Die Prüfsubstanz wurde als Verreibung in 1 %iger Methylzellulose (1,0 ml/100 g Tier) per Schlundsonde beigebracht. Aus den nach Gabe der verschiedenen Dosen der Prüfsubstanz gewonnenen Werten für die mittlere maximale Temperatursenkung wurde nach linearer Regressionsanalyse nach LINDER (s.o.) eine ED-1,5°C als jene Dosis berechnet, die eine Senkung der Körpertemperatur um 1,5°C bewirkte.

The subject of another data set is Wärmeschmerz der Maus. The data set is described as follows: Analgesic effect against heat pain in the mouse (hot plate, modified CHEN and BECKMAN). The format is in vivo. The note with it: oral (gavage), male Chbb:NMRI(SPF) mice, plate 52°C, dose giving 100 % prolongation of reaction time, read-out: Analgesie Maus "hot plate" [ED100]. As for the experimental part: 2) Wirkung gegen den Wärmeschmerz der Maus
Die Prüfung erfolgte mit Hilfe einer Modifikation der Ver- suchsanordnung nach CHEN u. BECKMAN (Science 113, 631 (1951) an männlichen Chbb:NMRI(SPF)-Mäusen mit einem mittleren Gewicht von 20 g. Die "heiße Platte" bestand aus Aluminium und hatte eine Oberflächentemperatur von 52°C. ;
Die Prüfsubstanz wurde als Verreibung in 1 %iger-Methylzellulose (0,1 ml/10 g maus) per Schlundsonde beigebracht. Vor der Behandlung mit Prüfsubstanz wurden die Tiere im Abstand von 30 min. zweimal auf die heiße Platte gesetzt. Es wurde ihre individuelle Reaktionszeit ermittelt. Nach Gabe der Prüfsubstanz wurde in Abständen von 30 min. die Reaktionszeit erneut gemessen.
Aus der mit den verschiedenen Dosen der Prüfsubstanz erzielten gemittelten maximalen Verlängerung der Reaktionszeit wurde nach linearer Regressionsanalyse nach LINDER (s.o.) eine ED100 mit den Vertrauensgrenzen nach FIELLER (s.o.) als die Dosis berechnet, die zu einer 100 %igen Verlängerung der Reaktionszeit führte.

Data set [3] in a line: Acute toxicity in the mouse. The note with it: in vivo, oral (gavage), Chbb:NMRI(SPF) mice of both sexes, deaths within 14 days, read-out: Akute Toxizität Maus [LD50]. Here is the method:
4. Akute Toxizität an der Maus
Die Bestimmung der akuten Toxizität erfolgte an Chbb:NMRI (SPF)-Mäusen beider Geschlechter mit einem mittleren Gewicht von 20 g. Die Prüfsubstanz wurde als Verreibung in 1 %iger Methylzellulose (0,5 ml/10 g Tier) per Schlundsonde verabfolgt. Die Berechnung der LD50 erfolgte (soweit möglich) nach LITCHFIELD u. WILCOXON (J. Pharmacol. exp. Therap. 96, 99 (1949)) aus dem Prozentsatz der Tiere, die nach den verschiedenen Dosen innerhalb von 14 Tagen verstarben.

The ED50 is the dose that gives a 50% effect, or the effect in half of the subjects. By LD50 is commonly meant the dose at which mortality reaches 50%. Consider `COc1cc2sc(N)nc2cc1Cl` [2-Amino-5-chlor-6-methoxy-benzothiazol], for which the ED50 is 79 mg/kg in data set [1] (0.75 h, 45 min after application, read-out: Analgesie Ratte nach RANDALL-SELITTO 45 min nach Appl. [ED50]) and 80 mg/kg in data set [1] (1.5 h, 90 min after application, read-out: Analgesie Ratte nach RANDALL-SELITTO 90 min nach Appl. [ED50]). The ED (-1.5 degC) in data set [2] was 101 mg/kg. Besides, the ED100 in the data set with Wärmeschmerz der Maus worked out at 144 mg/kg. Besides, in data set [3], the LD50 at 336 h is 3050 mg/kg.
